Key:
CD11b = assay: Effect on CD11b expression in human histiocytic leukemia cell line, U937 cells (PDB-induced); type: cell-based; conditions: U-937, 72 h, U937 cells, PDB 10 ng/ml, 3 days, read-out: Inhibitory effect on CD11b expression (IC50)
Procedure: Effect on CD11b expression human histiocytic leukemia cell line, U937 cells
Effect on the expression of CD11b antigen, which is the α chain of an adhesion molecule, Mac-1 expressing on the surface of leukocytgic cells, was investigated. U937 cells were suspended in RPMI1640 medium containing 20% fetal calf serum (FCS), plated with phorbol 12,13-dibutyrate (PDB, 10 ng/ml) into 96-well filtration plates, and cultured for 3 days at 37° C. in 5% CO2. After the cells were washed once with RPMI1640 medium, rat anti-human CD11b antibody (2 μg/ml) was added to each well and the plates were incubated for 1 hr on ice. After the cell were washed twice, peroxidase-conjugated anti-rat immunoglobulin antibody (1 μg/ml) was added, and the cells were incubated for 1 hr on ice. After the cells were washed 3 times, substrate for peroxidase (o-phenylenediamine) was added. After the plates were stood for 15 min at room temperature, absorbance at 490 nm was measured with a 96-well microplate reader and was regarded as a indicator of CD11b antigen expression.

glomerulonephritis = assay: Effect on glomerulonephritis in mice (anti-GBM antiserum); type: in vivo, female C57BL/6 mice; conditions: 12 days after anti-GBM antiserum, 0-5 points
Procedure: Effect on glomerulonephritis in mice
Rabbit immunoglobulin G solution (4 mg/ml in saline) was mixed with Freund's complete adjuvant at a ratio of 1:1 and the emulsion was prepared. The emulsion was injected into peritoneal cavity of female C57BL/6 mice (0.25 ml/mouse). After 5 days, rabbit anti-mouse glomerular basement membrane (GBM) antiserum obtained by the method of Nagai et al. (Japan. J. Pharmacol., 32, 1117, 1982) was administered i.v. (0.08 ml/mouse). […] Test compounds were suspended in 0.5% hydroxypropylmethylcellulose (HPMC) solution and administered p.o. (0.1 ml/10 g body weight) for 13 days beginning on the day of anti-GBM ant-serum injection.

[1] = system: lipopolysaccharide (LPS)-induced adhesion of leukocytes; assay: Effect on lipopolysaccharide (LPS)-induced adhesion of leukocytes; type: in vivo, BALB/c mice; conditions: 6 hr after LPS
From the text: Effect on lipopolysaccharide (LPS)-induced adhesion of leukocytes
It has been reported that, by the administration of LPS to mice, an adhesion molecule, Mac-1-dependent leukocyte adhesion is induced, the leukocytes infiltrate into lung, liver and so on, and in result the number of peripheral blood leukocytes reduces (Morisaki et al., Clin. Immunol. Immunopathol., 61, 365-375, 1991). The effect on LPS-induced leukocyte adhesion was investigated by taking the reduction of peripheral blood leukocytes as an indicator of leukocyte adhesion.
LPS solution (50 ng/ml in saline, 0,5 ml/mouse) was injected into peritoneal cavity of BALB/c mice on day 0. Six hr after the LPS injection, the number of peripheral blood leukocytes was counted with an automatic blood cell counter. Test compounds were suspended in 0.5% hydroxypropylmethylcellulose solution and administered p.o. (0.1 ml/10 g body weight) on days -4 to 0.

ELAM-1 = assay: Inhibitory effect on TNF-α-induced expression of ELAM-1 in HUVECs; type: cell-based; conditions: Homo sapiens, HUVEC; HUVECs, TNF-α 100 U/ml, 5 hr; read-out: Inhibitory effect (IC50) on ELAM-1 expression
Procedure: (§1) Inhibitory effect on expression of VCAM-1 and ELAM-1 in human umbilical vein-derived endothelial cells (HUVECs)
(§2) HUVECs were suspended in 199 medium containing 20% FCS, 20 μg/ml endothelial cell growth factor derived from bovine brain, and 100 μg/ml heparin, plated into 96-well microculture plates coated with collagen, and cultured at 37° C. in 5% CO2. When cells were grown to confluence, the cells received tumour necrosis factor (TNF)-α (20 U/ml for VCAM-1 expression, 100 U/ml for ELAM-1 expression) and cultured for 5 hr. After the cells were washed once with 199 medium, mouse anti-human VCAM-1 monoclonal antibody (2 μg/ml) or rat anti-human ELAM-1 monoclonal antibody (2 μg/ml) was added, and the cells were incubated for 1 hr at room temperature. After the cells were washed twice, peroxidase-conjugated anti-mouse immunoglobulin antibody or anti-rat immunoglobulin antibody was added, and the cells were incubated for 1 hr at room temperature. After the cells were washed 3 times, 2,2'-azino-bis(3-ethylbenzothiazolone-6-sulfonic acid) was added. After the plates were stood for 15 min at room temperature, absorbance at 405 nm with a reference wave length of 490 nm was measured with a 96-well microplate reader and was regarded as a indicator of VCAM-1 or ELAM-1 expression.

[2] = system: oxazolone-induced ear edema; assay: Effect on oxazolone-induced ear edema in mice; type: in vivo; conditions: sensitized mice, 24 hr after challenge
Procedure: Effect on oxazolone-induced ear edema in mice.
Mice were sensitized by applying 50 μl of oxazolone solution (50 mg/ml in acetone) to their shaved abdomen on day 0. On day 7, 5 μl of oxazolone solution was applied to each surface of the right ear. After 24 hr (day 8), the right and left ears were cut off with a puncher of 6 mm in diameter and weighed with an electronic reading balance. The difference in weight between the oxazolone-treated ear (right) and untreated ear (left) was taken to reflect the extent of ear edema. Test compounds were suspended in 0.5% hydroxypropylmethycellulose solution and administered p.o. (0.1 ml/10 g body weight) on days 0 to 4 (once a day) and day 7 (twice a day).

[3] = system: thioglycollate (TG) medium-induced infiltration of leukocytes; assay: Effect on thioglycollate (TG) medium-induced infiltration of leukocytes; type: in vivo, BALB/c mice; conditions: TG medium 1 ml, day 4
Procedure: Effect on thioglycollate (TG) medium-induced infiltration of leukocytes
One ml of TG medium was injected into peritoneal cavity of BALB/c mice on day 0. On day 4, leukocytes infiltrating into the peritoneal cavity were collected with 3 ml of phosphatebuffered saline containing 0.02% EDTA and the density of leukocytes (cells/ml) was counted with an automatic blood cell counter. Total number of leukocytes (X) was calculated from the density of leukocytes (A) with the following formula.
Test compounds were suspended in 0.5% hydroxypropylmethyl-cellulose solution and administered p.o. (0.1 ml/10 g body weight) on days 0 to 3.

VCAM-1 = assay: Inhibitory effect on TNF-α-induced expression of VCAM-1 in HUVECs; type: cell-based; conditions: Homo sapiens, HUVEC; HUVECs, TNF-α 20 U/ml, 5 hr; read-out: Inhibitory effect (IC50) on CAM-1 expression
Procedure: as §1, §2

`CNC(=O)C[C@@H]1N=C(c2ccc(Cl)cc2)c2c(sc(C)c2C)-n2c(C)nnc21` [Example 1, (S)-N-methyl-4-(4-chloro-phenyl)-2,3,9-trimethyl-6H-thieno[3,2-f][1,2,4]triazolo[4,3-a]-[1,4]diazepine-6-acetamide 1/4 hydrate] was tested. Which IC50 (CD11b) did it give?
The IC50 was 260 nM.

What about the “Score (mean ± S.D.) of protein level in urine” value (glomerulonephritis; 1 mg/kg/day p.o.) of the same compound?
The value was 2.56 ± 0.53.

And the “Score (mean ± S.D.) of protein level in urine” value (glomerulonephritis; 3 mg/kg/day p.o.)?
The value was 2.22 ± 0.67.

And the “Number of peripheral blood leukocytes (mean ± S.D.)” value ([1]; 0.3 mg/kg/day p.o.)?
The value was 32 ± 5 × 100/μl.

What about the “Number of peripheral blood leukocytes (mean ± S.D.)” value ([1]; 1 mg/kg/day p.o.) of the same compound?
Its value is 50 ± 15 × 100/μl.

And the “Number of peripheral blood leukocytes (mean ± S.D.)” value ([1]; 3 mg/kg/day p.o.)?
Its value is 61 ± 13 × 100/μl.

And the IC50 (ELAM-1)?
Its IC50 is 52 nM.

What about the “Increase in ear weight (mean ± S.D.)” value ([2]; 0.1 mg/kg p.o.) of the same compound?
The value was 16.3 ± 1.0 mg.

What about the “Increase in ear weight (mean ± S.D.)” value ([2]; 0.3 mg/kg p.o.) of the same compound?
The value was 15.0 ± 0.6 mg.

What about the “Increase in ear weight (mean ± S.D.)” value ([2]; 1 mg/kg p.o.) of the same compound?
The value was 14.2 ± 0.8 mg.

And the “Total number of leukocytes (mean ± S.D.)” value ([3]; 0.03 mg/kg/day p.o.)?
Its value is 1059 ± 285 × 10^4.

What about the “Total number of leukocytes (mean ± S.D.)” value ([3]; 0.1 mg/kg/day p.o.) of the same compound?
The value was 719 ± 308 × 10^4.

And the “Total number of leukocytes (mean ± S.D.)” value ([3]; 0.3 mg/kg/day p.o.)?
The value was 442 ± 117 × 10^4.

What about the IC50 (VCAM-1) of the same compound?
Its IC50 is 25 nM.

From patent publication US5712274A, “Thienotriazolodiazepine compounds and their pharmaceutical use” (Yoshitomi Pharmaceutical Industries, Ltd., priority 1995, dated 1998)
